# Experimental data taken from patent publication US20170304388A1, “NEW INDICATION OF CARDIOVASCULAR DRUGS FOR PREPARATION OF CANCER INHIBITION PHARMACEUTICAL COMPOSITION” (LAUNX BIOMEDICAL CO., LTD., priority 2014, published 2017).
# Where a name gives a salt, the structure may show the parent alone.
# Assays:
# Format in all cases: cell-based
# T24 = test: Cell viability analysis (WST-1), T24; conditions: Table 4, repeated experiments, drug 10 μM; for viability at 10 µM: Homo sapiens, T-24, 72 h, read-out: survival rate (viability) of cancer cells, T24
# Description: (§1) Subculture the different types of cancer cells. The cancer cells includes lung cancer, gastric cancer, hepatic cancer, colon cancer, skin cancer, cervical cancer, prostate cancer, bladder cancer, breast cancer, leukemia, pancreatic cancer, ovarian cancer, tongue cancer, osteosarcoma, and renal cancer. The cell numbers were counted and reseed as 2×10^6 in cell culture plate/flask. Then, the culture medium for culturing the cell lines was added to a volume of 10 ml, and the cells were cultured for 2-3 days. Then, the cells were suspended for loading into 96-well plates. The cell number was 3000 cells and the volume of the culture medium was 100 ul each well.
# (§2) Removing the original culture medium from 96-well plate. Then add 100 μl of commercially drug at a concentration of 10 μM per well. After 72 hours, add the diluted WST-1 reagent to the well with 100 μl/well, and the diluted WST-1 reagent was acquired from the dilution of 9:1 medium and WST-1 stock reagent. Finally, the total volume of each well are 200 μl/well. Culture the 96-well plate at 37° C. for 30 to 90 minutes. Detecting and calculating the survival rate of each cancer cells with an ELISA reader at OD450 nm. The lower viability of cancer cells represents better inhibition effect via the drugs. Otherwise, the higher viability of cancer cells represents worse inhibition effect via the drugs.
# (§3) According to the above mentioned cardiovascular drugs for cancer growth inhibition in Table 3, the inventors took the repeat experiments for the cardiovascular drugs to check the growth inhibitory effects of cancer cells by the cardiovascular drugs. […] 4.
# BCC = test: Cell viability analysis (WST-1), BCC; conditions: Table 4, repeated experiments, drug 10 μM; for viability at 10 µM: BCC, 72 h, read-out: survival rate (viability) of cancer cells, BCC
# AsPC-1 = test: Cell viability analysis (WST-1), AsPC-1; conditions: Homo sapiens, ASPC1, 72 h, Table 4, repeated experiments, drug 10 μM, read-out: survival rate (viability) of cancer cells, AsPC-1
# Description: as §1, §2, §3
# [1] = system: HCT116 (Colorectal Carcinoma); test: Cell viability analysis (WST-1), HCT116; conditions: Homo sapiens, HCT-116, 72 h, Table 4, repeated experiments, drug 10 μM, WST-1, read-out: survival rate (viability) of cancer cells, HCT116
# [2] = system: AGS (Gastric Adenocarcinoma); test: Cell viability analysis (WST-1), AGS; conditions: Table 4, repeated experiments, drug 10 μM; for viability at 10 µM: 72 h, WST-1, read-out: survival rate (viability) of cancer cells, AGS
# U2OS = test: Cell viability analysis (WST-1), U2OS; conditions: Table 4, repeated experiments, drug 10 μM; for viability at 10 µM: Homo sapiens, U2OS, 72 h, read-out: survival rate (viability) of cancer cells, U2OS
# Description: as §1, §2, §3
# [3] = system: TSGH-8301 (Urinary Bladder Carcinoma); test: Cell viability analysis (WST-1), TSGH-8301; conditions: Table 4, repeated experiments, drug 10 μM; for viability at 10 µM: 72 h, WST-1, read-out: survival rate (viability) of cancer cells, TSGH-8301
# [4] = system: PC3 (Prostate Adenocarcinoma); test: Cell viability analysis (WST-1), PC3; conditions: 72 h, Table 4, repeated experiments, drug 10 μM, WST-1, read-out: survival rate (viability) of cancer cells, PC-3
# [5] = system: HepG2 (Hepatocellular Carcinoma); test: Cell viability analysis (WST-1), HepG2; conditions: Table 4, repeated experiments, drug 10 μM; for viability at 10 µM: Homo sapiens, HepG2, 72 h, WST-1, read-out: survival rate (viability) of cancer cells, HepG2
# NIH-OVCAR-3 = test: Cell viability analysis (WST-1), NIH-OVCAR-3; conditions: Homo sapiens, OVCAR-3, 72 h, Table 4, repeated experiments, drug 10 μM, read-out: survival rate (viability) of cancer cells, NIH-OVCAR-3
# Description: as §1, §2, §3
# MDA-MB231 = test: Cell viability analysis (WST-1), MDA-MB231; conditions: Homo sapiens, MDA-MB-231, 72 h, Table 4, repeated experiments, drug 10 μM, read-out: survival rate (viability) of cancer cells, MDA-MB231
# TOV-21G = test: Cell viability analysis (WST-1), TOV-21G; conditions: Table 4, repeated experiments, drug 10 μM; for viability at 10 µM: Homo sapiens, TOV21G, 72 h, read-out: survival rate (viability) of cancer cells, TOV-21G
# Description: as §1, §2, §3
# [6] = system: MCF7 (Mammary Gland, Adenocarcinoma); test: Cell viability analysis (WST-1), MCF7; conditions: Homo sapiens, MCF7, 72 h, Table 4, repeated experiments, drug 10 μM, WST-1, read-out: survival rate (viability) of cancer cells, MCF-7
# [7] = system: H1650 (Lung Adenocarcinoma); test: Cell viability analysis (WST-1), H1650; conditions: Table 4, repeated experiments, drug 10 μM; for viability at 10 µM: Homo sapiens, NCI-H1650, 72 h, WST-1, read-out: survival rate (viability) of cancer cells, H1650
# [8] = system: A375 (Amelanotic Melanoma); test: Cell viability analysis (WST-1), A375; conditions: Table 4, repeated experiments, drug 10 μM; for viability at 10 µM: Homo sapiens, A-375, 72 h, WST-1, read-out: survival rate (viability) of cancer cells, A375
# [9] = system: HeLa (Cervix Adenocarcinoma); test: Cell viability analysis (WST-1), HeLa; conditions: Homo sapiens, HeLa, 72 h, Table 4, repeated experiments, drug 10 μM, WST-1, read-out: survival rate (viability) of cancer cells, HeLa
# Hep3B = test: Cell viability analysis (WST-1), Hep3B; conditions: Table 4, repeated experiments, drug 10 μM; for viability at 10 µM: Homo sapiens, Hep3B, 72 h, read-out: survival rate (viability) of cancer cells, Hep3B
# Description: as §1, §2, §3
# [10] = system: MKN-45 (Gastric Adenocarcinoma); test: Cell viability analysis (WST-1), MKN-45; conditions: Table 4, repeated experiments, drug 10 μM; for viability at 10 µM: Homo sapiens, MKN-45, 72 h, WST-1, read-out: survival rate (viability) of cancer cells, MKN-45
# SAS = test: Cell viability analysis (WST-1), SAS; conditions: Table 4, repeated experiments, drug 10 μM; for viability at 10 µM: 72 h, read-out: survival rate (viability) of cancer cells, SAS
# Description: as §1, §2, §3
# 786-O = test: Cell viability analysis (WST-1), 786-O; conditions: Table 4, repeated experiments, drug 10 μM; for viability at 10 µM: Homo sapiens, 786-0, 72 h, read-out: survival rate (viability) of cancer cells, 786-O
# Description: as §1, §2, §3
# C-33A = test: Cell viability analysis (WST-1), C-33A; conditions: Homo sapiens, C-33-A, 72 h, Table 4, repeated experiments, drug 10 μM, read-out: survival rate (viability) of cancer cells, C-33A
# Description: as §1, §2, §3
# BxPC-3 = test: Cell viability analysis (WST-1), BxPC-3; conditions: Table 4, repeated experiments, drug 10 μM; for viability at 10 µM: Homo sapiens, BXPC-3, 72 h, read-out: survival rate (viability) of cancer cells, BxPC-3
# Description: as §1, §2, §3
# [11] = system: A549 (Lung Adenocarcinoma); test: Cell viability analysis (WST-1), A549; conditions: Table 4, repeated experiments, drug 10 μM; for viability at 10 µM: Homo sapiens, A549, 72 h, WST-1, read-out: survival rate (viability) of cancer cells, A549
# [12] = system: LoVo (Colorectal Adenocarcinoma); test: Cell viability analysis (WST-1), LoVo; conditions: Homo sapiens, LoVo, 72 h, Table 4, repeated experiments, drug 10 μM, WST-1, read-out: survival rate (viability) of cancer cells, LoVo
# cancer cell lines = test: Growth inhibitory effects on the panel of cancer cell lines; conditions: drug 10 μM, 72 hours, WST-1
SMILES,viability at 10 µM (T24),viability at 10 µM (AsPC-1),viability at 10 µM [1],viability at 10 µM [2],viability at 10 µM (U2OS),viability at 10 µM [3],viability at 10 µM [4],viability at 10 µM [5],viability at 10 µM (NIH-OVCAR-3),viability at 10 µM (MDA-MB231),viability at 10 µM (TOV-21G),viability at 10 µM [6],viability at 10 µM [8],viability at 10 µM [9],viability at 10 µM (Hep3B),viability at 10 µM [10],viability at 10 µM (SAS),viability at 10 µM (786-O),viability at 10 µM (C-33A),viability at 10 µM [12],further results
"CC(C)n1c(/C=C/C(O)CC(O)CC(=O)O)c(-c2ccc(F)cc2)c2ccccc21 (centres unmarked) [Fluvastatin sodium (Lescol), Fluvastatin sodium]",71.8%,83.6%,55%,52%,91.2%,78.2%,32.1%,104%,84.7%,43%,50.5%,82.5%,21.8%,54.3%,109%,65.3%,81.5%,23.6%,89.5%,100%,viability at 10 µM (BCC): 27%; viability at 10 µM [7]: 73.1%; viability at 10 µM (BxPC-3): 79.1%; viability at 10 µM [11]: 98.8%
COc1cc2nc(N3CCN(C(=O)c4ccco4)CC3)nc(N)c2cc1OC [Prazosin HCl],88.5%,80.4%,96.4%,86.8%,98%,99.8%,,87.2%,88.9%,85.1%,91.9%,87.6%,77.9%,90.9%,116%,70.1%,114%,79.5%,97.2%,95.7%,viability at 10 µM (BCC): 73.5%; inhibition effect on different cancer cell lines (in words) (cancer cell lines): significant inhibition effect; viability at 10 µM (BxPC-3): 54%; viability at 10 µM [11]: 72.2%
COC(=O)C1=C(C)NC(C)=C(C(=O)OC2CCCN(Cc3ccccc3)C2)C1c1cccc([N+](=O)[O-])c1 (centres unmarked) [Benidipine hydrochloride],61%,63.4%,90.6%,87.8%,54.2%,81.5%,88.5%,83.6%,85.2%,77.3%,47.5%,77.3%,76%,92.9%,98.8%,92.9%,64.5%,78.9%,105%,69%,inhibition effect on different cancer cell lines (in words) (cancer cell lines): significant inhibition effect; viability at 10 µM [7]: 64.5%; viability at 10 µM (BxPC-3): 73.8%; viability at 10 µM [11]: 70.3%
CCCCc1nc(Cl)c(CO)n1Cc1ccc(-c2ccccc2-c2nn[nH]n2)cc1 [Losartan potassium],66.3%,86.4%,106%,74.1%,105%,92%,120%,93.9%,98.7%,,78.6%,87.6%,96.6%,83.4%,103%,82.8%,95.7%,96.3%,108%,106%,viability at 10 µM (BCC): 90.2%; inhibition effect on different cancer cell lines (in words) (cancer cell lines): significant inhibition effect; viability at 10 µM [7]: 77.2%; viability at 10 µM (BxPC-3): 77.7%; viability at 10 µM [11]: 96%
"CCOC(=O)C1=C(COCCN)NC(C)=C(C(=O)OC)C1c1ccccc1Cl (centres unmarked) [Amlodipine besylate (Norvase), Amlodipine besylate]",,87.8%,78.3%,,,,73.6%,,91.6%,82.7%,,80.5%,,,,,,,33.7%,85.6%,"survival rate (viability) of cancer cells, T24 (T24; 72 hours): 93.08; survival rate (viability) of cancer cells, BCC (BCC; 72 hours): 102.9778; survival rate (viability) of cancer cells, AGS ([2]; 72 hours, WST-1): 12.18; survival rate (viability) of cancer cells, U2OS (U2OS; 72 hours): 71.06; survival rate (viability) of cancer cells, TSGH-8301 ([3]; 72 hours, WST-1): 36.2492; inhibition effect on different cancer cell lines (in words) (cancer cell lines): significant inhibition effect; survival rate (viability) of cancer cells, HepG2 ([5]; 72 hours, WST-1): 95.01; survival rate (viability) of cancer cells, TOV-21G (TOV-21G; 72 hours): 93.55; survival rate (viability) of cancer cells, H1650 ([7]; 72 hours, WST-1): 110.2477; survival rate (viability) of cancer cells, A375 ([8]; 72 hours, WST-1): 136.6675; survival rate (viability) of cancer cells, Hep3B (Hep3B; 72 hours): 123.4192; survival rate (viability) of cancer cells, MKN-45 ([10]; 72 hours, WST-1): 86.43; survival rate (viability) of cancer cells, SAS (SAS; 72 hours): 94.7983; survival rate (viability) of cancer cells, 786-O (786-O; 72 hours): 73.16; survival rate (viability) of cancer cells, BxPC-3 (BxPC-3; 72 hours): 99.11; survival rate (viability) of cancer cells, A549 ([11]; 72 hours, WST-1): 110.3104"
